Laboratory results: patent EP1273297A1, “Vitamin E for the treatment of diseases in which the binding of the transcription factor NF-KB and/or AP-1 to promoter target sites has a beneficial effect (eg AIDS, cardiac infarction)” (Deutsches Krebsforschungszentrum Stiftung des öffentlichen …, priority 2001, dated 2003)

Columns and labels:
Jurkat J-27 T cells = test: AICD of Jurkat J-27 T cells, apoptotic nuclei by DNA fragmentation; type: cell-based; settings: J-27 cells, plate bound α-CD3 (OKT3, 50 µg/ml) 24 h (Fig. 2A, B)
Experimental: J-27 T cells were induced either with PMA (10 ng/ml) Sigma (St. Louis, MO, USA) and ionomycin (0.5 µM), Calbiochem (Bad Soden/Ts, Germany) or with plate bound α-CD3 (OKT3, 50 µg/ml) for 24 h in the presence of vitamin E or equal amount of the vitamin E solvent ethanol. Apoptotic nuclei were measured by determination of DNA fragmentation (Dhein et al., Nature 373 (1995), 438).
J-27 cells were stimulated in the absence or presence of CD95-Fc (50 µg/ml) or NOKI (50 µg/ml). BD-Pharmingen (Heidelberg, Germany), for 24 h.
(§1) To further investigate the molecular mechanism by which vitamin E attenuates AICD, several Jurkat T cell sub-clones susceptible to T-cell-receptor (TCR)-mediated-activation-induced apoptosis were selected. Data from one of the representative clones, clone 27 (J-27) is presented here. Activation of T cells through the T cell receptor can be mimicked by stimulation with the phorbol ester (PMA) and calcium ionophores (ionomycin). […] Therefore, it is unlikely that vitamin E directly interferes with signals downstream of the CD95 receptor. […] Thus, vitamin E may reduce CD95L expression at the transcriptional level and, therefore, attenuate AICD in J-27 cells. Experimental details are given in the legend to Figure 2.

CD95L promoter = test: Luciferase reporter assay in transiently transfected J-27 T cells, 0.86-kb CD95L promoter; type: cell-based; settings: J-27 cells, 50 µM vitamin E 1 h, PMA/ionomycin 8 h (Fig. 4)
Description: (§2) J-27 T cells were transiently transfected with the luciferase reporter constructs containing the 0.86-kb CD95L promoter (Li-Weber et al., Eur. J. Immunol. 30 (2000), 661), or three copies of the NF-κB binding sites at -530 or -50 region (Li-Weber et al., Eur. J. Immunol. 30 (2000), 661) or the AP-1 motif at +90 region (Eichhorst et al., Mol. Cell. Biol. 20 (2000), 7826) of the CD95L promoter as described in Li-Weber et al., 2000. All promoter constructs are described in the cited references. A luciferase reporter construct containing three copies of the Egr consensus binding site was used as a control (Li-Weber et al., Eur. J. Immunol. 29 (1999), 3017). After overnight culture, the cells were divided and treated with vitamin E (VE) (50 µM) or the vitamin E solvent ethanol for 1 h and than further cultured in the absence (empty box) or presence (black box) of PMA (10 ng/ml) and ionomycin (0.5 µM). Luciferase activity was determined after 8 h of stimulation. Results represent the average of three to five independent transfection experiments.
(§3) To further investigate the effect of vitamin E on CD95L expression, the CD95L promoter (-860 to +100) or a minimal TATA promoter containing three copies of either the NF-B or the AP1 sites of the CD95L promoter were linked to the luciferase reporter gene and these constructs were transiently transfected into J-27 T cells. […]

IFNγ mRNA = IFNγ mRNA by RT-PCR (control) in J-27 T cells stimulated by PMA and ionomycin; type: cell-based; settings: J-27 cells, 50 µM vitamin E, PMA/ionomycin (Fig. 2E)
Experimental: J-27 T cells were cultured in the absence or presence of 50 µM vitamin E for 1 h and then stimulated by PMA (10 ng/ml) and ionomycin (0.5 µM) for the indicated times. CD95L mRNA expression was analyzed by RT-PCR. Primers for IFNγ and β-actin were used as controls.
as §1

[1] = system: human peripheral blood T cells; test: AICD of day 6 prestimulated peripheral blood T cells restimulated with plate-bound α-CD3, cell death by propidium iodide uptake; type: cell-based; settings: depending on the blood donors; vitamin E at physiological concentrations
Experimental: Freshly isolated blood T cells were stimulated by PHA and cultured in the presence of IL-2 for 6 days as described in Klas et al., Int. Immunol. 5 (1993), 625. The day 6 prestimulated T cells were then treated without or with 25 µM vitamin E (VE) Sigma (St. Louis, MO, USA) for 1 h and subsequently cultured in 96-well-flat-bottomed plates coated with α-CD3 (OKT3, 50 µg/ml; (DKFZ, Prof. Krammer) in the absence or presence of CD95-Fc (50 µg/ml; (DKFZ, Prof. Krammer, Dhein et al., Nature 373 (1995), 438) or control human (50 µg/ml) IgG-1. Cell death was assessed after a further 48 h by propidium iodide (PI) uptake (Klas et al., Int. Immunol. 5 (1993), 625.
Since activation-induced-cell-death (AICD) is a major cause of T cell depletion in AIDS and since supplementation of vitamin E is shown to increase T cell numbers, it was investigated whether vitamin E could protect from T cell depletion by AICD. To analyze the effect of vitamin E on T cell death, freshly isolated peripheral blood T cells were prestimulated for 6 days (referred to as day 6 cells) and subsequently restimulated via the TCR by plate-bound α-CD3 antibodies. […] CD95 (APO-1/Fas) and its ligand (CD95L) are known to play a major role in AICD of T cells. […] The concentration of vitamin E in plasma from healthy individuals normally ranges from 12-35 µM. Thus, vitamin E at physiological concentrations may attenuate AICD. […]

AP-1 = test: EMSA, nuclear extracts of J-27 T cells, binding to CD95L promoter AP-1 site; type: cell-based; settings: J-27 nuclear extracts, PMA/ionomycin 2 h, 50 µM vitamin E added 1 h before induction (Fig. 3A)
Experimental: (A)^32P-labeled oligonucleotides containing the CD95L NF-κB (at the promoter -530 and -50 region) (Li-Weber et al., Eur. J. Immunol. 30 (2000), 661) and AP-1 (at the promoter +90 region) (Eichhorst et al., Mol. Cell. Biol. 20 (2000), 7826) binding sequences were analyzed by EMSA as described (Li-Weber et al., (2000). The EMSA probes had the following sequences: • CD95L NF-κB at-530: 5'-[…]-3' • CD95L NF-κB at-50: 5'-[…]-3' • CD95L AP-1 at +90: 5'-[…]-3'
Nuclear extracts were prepared from J-27 T cells either non-induced (-) or induced (+) for 2 h by PMA (10 ng/ml) and ionomycin (0.5 µM) in the absence (-) or presence (+) of 50 µM vitamin E (VE) (added 1 h before induction). The inducible complex corresponding to NF-κB and AP-1 were indicated. A NF-Y binding oligonucleotide 5'[…]-3' was used for equal loading of nuclear extracts.
It was investigated whether vitamin E affects NF-KB and AP-1 binding to the CD95L promoter target sites. Nuclear extracts were prepared from J-27 T cells stimulated in the presence or absence of vitamin E. The NF-κB and AP-1 binding sites contained in the CD95L promoter were used as probes in an electrophoretic-mobility-shift-assay (EMSA). Stimulation of T cell with PMA and ionomycin induced binding of nuclear factors to the NF-κB and AP-1 sites of the CD95L promoter (Fig. 3A). […]

[2] = system: peripheral blood lymphocytes of HIV positive individuals; test: AICD of peripheral blood lymphocytes of HIV positive individuals stimulated with plate bound α-CD3; type: cell-based, human
Experimental: Peripheral blood lymphocytes from HIV positive individuals (n = 33 Patients) and uninfected donors (11 Donors) were stimulated with plate bound (α-CD3 (50 µg/ml) for 48 h. Apoptosis was assessed by a drop in the forward to side scatter profile of apoptotic in comparison to living cells. The mean difference between patients and uninfected individuals is -7.23. 95% confidence interval is -13.7, -2.12.
Freshly isolated blood lymphocytes from 31 HIV positive individuals were stimulated with plate bound α-CD3 in the absence or presence of either 50 µg/ml CD95-Fc or 25 µM vitamin E (VE) (added 1 h before stimulation). IgG-1 (50 µg/ml), Sigma (St. Louis, MO, USA) was used as control. Cell death was assessed after 48 h stimulation.
To determine if vitamin E could reduce depletion of T cells from HIV positive individuals next the effects of vitamin E on AICD in peripheral blood lymphocytes of such individuals were analyzed. […] As opposed to lymphocytes from healthy donors lymphocytes isolated from HIV-infected individuals were more susceptible to apoptosis (Fig. 6A). […] Experimental details are given in the legend to Figure 6.

CD95L mRNA = CD95L mRNA levels by RT-PCR in day 6 T cells stimulated with plate bound α-CD3; type: cell-based, human; settings: 25 µM vitamin E 1 h, then α-CD3 12 h (Fig. 1B)
Experimental: The day 6 T cells were cultured in the absence or presence of 25 µM vitamin E for 1 h and then stimulated for 12 h with plate bound α-CD3. The mRNA was analyzed by RT-PCR using primers specific for CD95L (Eichhorst et al., Mol. Cell. Biol. 20 (2000), 7826) . For controls, primers for IFNγ and β-actin were used. The primers had the following sequences: • CD95L: sense-5'-[…]-3' antisense-5'[…]-3' • IFN-γ: sense-5'[…]-3' antisense-5'[…]-3' • human β-actin: sense-5'[…]-3' antisense-5'[…]-3'
Since activation-induced-cell-death (AICD) is a major cause of T cell depletion in AIDS and since supplementation of vitamin E is shown to increase T cell numbers, it was investigated whether vitamin E could protect from T cell depletion by AICD. To analyze the effect of vitamin E on T cell death, freshly isolated peripheral blood T cells were prestimulated for 6 days (referred to as day 6 cells) and subsequently restimulated via the TCR by plate-bound α-CD3 antibodies. […] CD95 (APO-1/Fas) and its ligand (CD95L) are known to play a major role in AICD of T cells. […] The concentration of vitamin E in plasma from healthy individuals normally ranges from 12-35 µM. Thus, vitamin E at physiological concentrations may attenuate AICD. Indeed, depending on the blood donors, vitamin E reduced AICD by 20-50%. […]

J-27 cells = test: α-APO-1 induced CD95-triggered apoptosis in J-27 cells; type: cell-based; settings: 50 µM vitamin E 1 h, then α-APO-1 10 ng/ml with 10 ng/ml protein A (Fig. 2D)
Experimental: J-27 cells were cultured in the absence or presence of 50 µM vitamin E for 1 h and than, treated with α-APO-1 (10 ng/ml) antibody, DKFZ, Prof. Krammer, Trauth et al., Science 245 (1989), 301 in the presence of 10 ng/ml protein A for the indicated times.
as §1

NF-κB = test: Luciferase reporter assay in J-27 T cells, three copies of the CD95L promoter NF-κB binding sites; type: cell-based; settings: J-27 cells, 50 µM vitamin E 1 h, PMA/ionomycin 8 h (Fig. 4)
Description: as §2, §3

Cc1c(C)c2c(c(C)c1O)CC[C@@](C)(CCC[C@H](C)CCC[C@H](C)CCCC(C)C)O2 [vitamin E, α-tocopherol]
α-CD3-induced cell death (Jurkat J-27 T cells): significantly reduced
luciferase expression driven by the CD95L promoter (CD95L promoter): greatly reduced
levels of IFNγ mRNA (IFNγ mRNA): not significantly changed
reduced AICD [1]: 20-50%
binding of AP-1 to its binding site of the CD95L promoter (+90 region) (AP-1): prevented binding
AICD ([2]; 31 HIV positive individuals, α-CD3, 25 µM vitamin E added 1 h before stimulation, 48 h (Fig. 6B)): greatly reduced
reduction of AICD compared with that obtained by CD95-Fc ([2]; HIV positive individuals, 25 µM vitamin E vs 50 µg/ml CD95-Fc (Fig. 6B)): even more pronounced
increase of CD95L mRNA expression upon restimulation (CD95L mRNA): blocked
α-APO-1 induced CD95-triggered apoptosis (J-27 cells): did not prevent
luciferase expression driven by the NF-κB site of the CD95L promoter (NF-κB): greatly reduced
